The subject of test [1] is CCRF-CEM human leukemia cell line. As to the kind of experiment: In vitro cytotoxic activity. To be noted: for Times less potent than 2 in the CCRF-CEM assay: relative to 2. It is filed as cell-based.
The test system of test [2] is CCRF-CEM/FPGS^-. It is filed as cell-based, human. To be noted: relative to CCRF-CEM.
For test [3], the system named is CCRF-CEM human leukemia cell line. To be noted: read-out: IC50, CCRF-CEM; equi-mixture of C10-diastereomers; cited from earlier work.
In test [4] the target is T1, rhGAR Tfase (Homo sapiens, UniProt P22102).
T1 sequence (P22102 808-1010 limits assumed): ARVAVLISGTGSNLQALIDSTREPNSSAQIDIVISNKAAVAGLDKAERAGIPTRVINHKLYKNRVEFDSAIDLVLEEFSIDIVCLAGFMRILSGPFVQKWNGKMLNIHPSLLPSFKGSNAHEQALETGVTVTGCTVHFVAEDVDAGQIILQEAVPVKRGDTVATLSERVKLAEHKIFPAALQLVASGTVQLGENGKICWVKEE
The test is described as follows: GAR Tfase enzyme inhibition assay. It is filed as biochemical.

[5] abbreviates: Homo sapiens, CCRF-CEM, read-out: IC50 [(-)T, (-)H] CCRF-CEM.

Like-named read-outs stand apart in the source and are kept apart here.

As a reminder, the IC50 is the concentration at which inhibition is half-maximal. Consider 10-hydroxy-DDACTHF [Compound 10R-7], for which the IC50 is 5700 nM in test [1] (read-out: CCRF-CEM IC50, (+) T, (-) H, Table 2, thymidine added, no hypoxanthine) and > 10000 nM in test [1] (read-out: CCRF-CEM IC50, (-) T, (+) H, Table 2, hypoxanthine added, no thymidine).
On to `Nc1nc(N)c(CCCC(C(=O)C(F)(F)F)c2ccc(C(=O)N[C@@H](CCC(=O)O)C(=O)O)cc2)c(=O)[nH]1` (some centres unmarked) [Compound 2, 10-CF3CO-DDACTHF, reference compound], for which the IC50 in test [1] (setting [5]) stood at 60 nM.
On to `CSC(CCCc1c(N)nc(N)[nH]c1=O)c1ccc(C(=O)N[C@@H](CCC(=O)O)C(=O)O)cc1` (some centres unmarked) [Compound 3, 10-methylthio-DDACTHF], for which the “Loss of activity against the cell line that lacks FPGS” value in test [2] was “ca. 100 fold”. For the same compound, the IC50 in test [3] was 100 nM.
With `Nc1nc(N)c(CCCC2(c3ccc(C(=O)N[C@@H](CCC(=O)O)C(=O)O)cc3)SCCCS2)c(=O)[nH]1` [Compound 9, (S)-2-(4-(2-(3-(2,4-Diamino-6-oxo-1,6-dihydropyrimidin-5-yl)propyl)-1,3-dithian-2-yl)benzamido)pentanedioic Acid], the “Activity in the CCRF-CEM cell-based assay (in words)” value in test [1] is recorded as “no activity”.
As for `CS[C@H](CCCc1c(N)nc(N)[nH]c1=O)c1ccc(C(=O)N[C@@H](CCC(=O)O)C(=O)O)cc1` [Compound 10R-3, (S)-2-(4-((R)-4-(2,4-Diamino-6-oxo-1,6-dihydropyrimidin-5-yl)-1-(methylthio)butyl)benzamido)pentanedioic Acid], the IC50 in test [1] (setting [5]) was determined as 90 nM. Further, the “Times less potent than 2 in the CCRF-CEM assay” value in test [1] was 3-5 times.
`CS[C@@H](CCCc1c(N)nc(N)[nH]c1=O)c1ccc(C(=O)N[C@@H](CCC(=O)O)C(=O)O)cc1` [Compound 10S-3, 10-methylthio-DDACTHF]: the “Times less potent than 2 in the CCRF-CEM assay” value in test [1] is recorded as 3-5 times.
A word on the Ki: it is the dissociation constant of the complex between target and ligand, obtained from inhibition or displacement. In the case of `Nc1nc(N)c(CCC[C@H](O)c2ccc(C(=O)N[C@@H](CCC(=O)O)C(=O)O)cc2)c(=O)[nH]1` [Compound 10S-7, (S)-2-(4-((S)-4-(2,4-Diamino-6-oxo-1,6-dihydropyrimidin-5-yl)-1-hydroxybutyl)benzamido)pentanedioic Acid], the affinity in test [4] corresponds to a Ki of 1210 nM. This counts as single-digit micromolar.
For the compound `CO[C@@H](CCCc1c(N)nc(N)[nH]c1=O)c1ccc(C(=O)N[C@@H](CCC(=O)O)C(=O)O)cc1` [Compound 10S-8, (S)-2-(4-((S)-4-(2,4-Diamino-6-oxo-1,6-dihydropyrimidin-5-yl)-1-methoxybutyl)benzamido)pentanedioic Acid], the IC50 in test [1] (setting [5]) amounted to 800 nM.

The record behind these values is paper PMC2559975 (Journal of medicinal chemistry, 2008).
